According to patent publication US9850245B2 (Merck Sharp & Dohme Corp., priority 2014, dated 2017):

How the values were obtained:
ROMK = ROMK (Homo sapiens (Human), UniProt P48048); test: Thallium Flux Assay; type: cell-based
Protocol: A Thallium Flux Assay was performed on the compounds of the Examples. This assay has been described previously; see, e.g., PCT Published Application WO 2013/062900.

Kir1.1 (ROMK1) = Kir1.1 (ROMK1) (Homo sapiens (Human), UniProt P48048); test: Electrophysiology Assay (whole cell voltage clamp, IonWorks Quattro); type: cell-based; conditions: Chinese hamster ovary cells stably expressing Kir1.1; fractional block at voltage step to 0 mV; 6 min compound incubation
Chain of Kir1.1 (ROMK1) (P48048 whole entry): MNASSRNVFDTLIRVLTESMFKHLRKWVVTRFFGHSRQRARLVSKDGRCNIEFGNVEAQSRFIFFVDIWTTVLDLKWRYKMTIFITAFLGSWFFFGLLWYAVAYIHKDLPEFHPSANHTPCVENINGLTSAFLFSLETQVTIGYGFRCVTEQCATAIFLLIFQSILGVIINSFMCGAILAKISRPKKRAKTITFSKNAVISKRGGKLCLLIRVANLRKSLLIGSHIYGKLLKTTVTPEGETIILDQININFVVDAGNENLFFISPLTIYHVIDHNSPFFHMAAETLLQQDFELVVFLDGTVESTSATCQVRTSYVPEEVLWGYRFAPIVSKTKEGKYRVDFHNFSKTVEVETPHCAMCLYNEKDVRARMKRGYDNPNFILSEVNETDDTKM
Protocol: Blocking of Kir1.1 (ROMK1) currents was examined by whole cell voltage clamp (Hamill et. al. Pfluegers Archives 391:85-100 (1981)) using the IonWorks Quattro automated electrophysiology platform (Molecular Devices, Sunnyvale, Calif.). Chinese hamster ovary cells stably expressing Kir1.1 channels were maintained in T-75 flasks in cell culture media in a humidified 10% CO2 incubator at 37° C. Prior to an experiment, Kir1.1 expression was induced by overnight incubation with 1 mM sodium butyrate. On the day of the experiment, cells were dissociated with 2.5 mL of Versene (Invitrogen 15040-066), a non-enzymatic cell dissociation reagent, for approximately 6 min at 37° C. and suspended in 10 mL of bath solution containing (in mM): 150 NaCl, 10 KCl, 2.7 CaCl2, 0.5 MgCl2, and 5 HEPES, at pH 7.4. After centrifugation, the cell pellet was resuspended in approximately 4.0 mL of bath solution and placed in the IonWorks instrument. The intracellular solution consisted of (in mM): 80 K gluconate, 40 KCl, 20 KF, 3.2 MgCl2, 3 EGTA, and 5 Hepes, at pH 7.4. Electrical access to the cytoplasm was achieved by perforation in 0.13 mg/mL amphotericin B for 4 min. Amphotericin B (Sigma A-4888) was prepared as a 40 mg/mL solution in DMSO.
Voltage protocols and current recordings were performed using the IonWorks HT software/hardware system. Currents were sampled at 1 kHz. There was no correction for liquid junction potentials. The test pulse, consisting of a 100 ms (millisecond) step to 0 mV (millivolts) from a holding potential of −70 mV, followed by a 100 ms voltage ramp from −70 mV to +70 mV, was applied before and after a 6 min compound incubation period. Test compounds were prepared by diluting DMSO stock solutions into the bath solution at 3× the final concentration and placed in the instrument in 96-well polypropylene plates. Current amplitudes were measured using the IonWorks software. To assess compound potency, the fractional block during the voltage step to 0 mV was calculated in Microsoft Excel (Microsoft, Redmond, Calif.), and dose-response curves were fitted with Igor Pro 4.0 (WaveMetrics, Lake Oswego, Oreg.).

Chain of ROMK (P48048 whole entry): as above

Cc1c([C@@H](O)CN2C3CCC2CC2(C3)OCCN(C3=CC(=O)OC3)C2=O)ccc2c1COC2=O (stereo partly drawn) [Example 36, (1R,2′R,5S)-8-((R)-2-hydroxy-2-(4-methyl-1-oxo-1,3-dihydroisobenzofuran-5-yl)ethyl)-4′-(5-oxo-2,5-dihydrofuran-3-yl)-8-azaspiro[bicyclo[3.2.1]octane-3,2′-morpholin]-3′-one]
IC50 (ROMK): 29.3 nM
IC50 (Kir1.1 (ROMK1)): 13.4 nM

CC1=C(N2CCOC3(CCN(CC(O)c4ccc(-n5cnnn5)nc4C)CC3)C2=O)COC1=O (centres unmarked) [Example 39, 9-(2-hydroxy-2-(2-methyl-6-(1H-tetrazol-1-yl)pyridin-3-yl)ethyl)-4-(4-methyl-5-oxo-2,5-dihydrofuran-3-yl)-1-oxa-4,9-diazaspiro[5.5]undecan-5-one]
IC50 (ROMK): 11.2 nM
IC50 (Kir1.1 (ROMK1)): 13 nM

CC1=C(N2CCOC3(CCN(CCc4ccc(-n5cnnn5)cn4)CC3)C2)COC1=O [Example 50]
IC50 (ROMK): 57.6 nM
IC50 (Kir1.1 (ROMK1)): 16 nM

CC1=C(N2CCOC3(CCN(CCc4ccc(-n5cnnn5)nn4)CC3)C2=O)COC1=O [Example 51, 9-(2-(6-(1H-tetrazol-1-yl)pyridazin-3-yl)ethyl)-4-(4-methyl-5-oxo-2,5-dihydrofuran-3-yl)-1-oxa-4,9-diazaspiro[5.5]undecan-5-one]
IC50 (ROMK): 26.8 nM
IC50 (Kir1.1 (ROMK1)): 7.3 nM
